Assay results: patent US7671061B2, “Methods and compositions for treating pain” (Hydra Biosciences, Inc., priority 2005, dated 2010)

target: T1, hTRPA1 (Homo sapiens, UniProt O75762, K186N); assay: High throughput Ca2+ fluorescence (Fluo4) assay, AITC stimulation; assay type: cell-based; conditions: Table 1; read-out: hTRPA1 Fluo4 IC50
T1 construct: expressed in transfected cells; host or cells: HEK293/TREx (Invitrogen), induced with tetracycline
Description: The assay depended on detection of the rise in intracellular Ca^2+ concentration ([Ca^2+]i) following channel activation in cells inducibly expressing the TRPA1 channel. Ca^2+ rise was quantified with the use of fluorescent Ca^2+ indicators that were loaded into cells and thereafter indicated the [Ca^2+]i. Ca^2+ influx followed activation of the TRPA1 channel. Compounds inhibiting the [Ca^2+]i rise were considered hits for further investigation.
These cells were maintained in the growth medium recommended by the manufacturer supplemented with 100 μg/ml hygromycin to promote retention of the TRPA1 construct. After growing to near confluency, cells were plated at a density of ˜25,000 cells/well in 384 well CellBind plates (Corning) in the presence of 1 μg/ml tetracycline, and allowed to grow for 20-30 hrs. A nearly confluent monolayer resulted. Cells were then loaded with Ca^2+ dye: Fura-2/AM or Fluo4/AM was added to the wells to a final concentration of 2 μM or 1 μM, respectively, and incubated for 80 min or 60 min, respectively, at room temperature. […] Frames were acquired at a rate of 0.2 Hz. During the assay, the plates were continuously […], with pipette mixing of wells following addition of each reagent. For the screening assay, 13 μl of a diluted stock (at 50 μM) was added to each well for 2 minutes following the collection of a short (4 frame) baseline. […] Data was collected for ˜3 minutes following addition of AITC, where the fluorescent intensity (for Fluo4) and the F340/F380 ratio (for Fura-2) were proportional to the [Ca^2+]i. Negative controls consisted of HEK293/TREx TRPA1 cells exposed to AITC, but no compound. […] These controls defined a screening window, and “hits” were defined as those compounds inhibiting the fluorescence response by at least 40%. IC50 values were determined for compounds defined as “hits.” The Fluo4 cell-based fluorescence assay was used to determine the intracellular Ca^2+ concentration in the presence of varying drug concentration. […] Compounds were tested in triplicate at all concentrations. Standard software was used to fit IC50 curves.

T1 sequence (O75762 whole entry K186N): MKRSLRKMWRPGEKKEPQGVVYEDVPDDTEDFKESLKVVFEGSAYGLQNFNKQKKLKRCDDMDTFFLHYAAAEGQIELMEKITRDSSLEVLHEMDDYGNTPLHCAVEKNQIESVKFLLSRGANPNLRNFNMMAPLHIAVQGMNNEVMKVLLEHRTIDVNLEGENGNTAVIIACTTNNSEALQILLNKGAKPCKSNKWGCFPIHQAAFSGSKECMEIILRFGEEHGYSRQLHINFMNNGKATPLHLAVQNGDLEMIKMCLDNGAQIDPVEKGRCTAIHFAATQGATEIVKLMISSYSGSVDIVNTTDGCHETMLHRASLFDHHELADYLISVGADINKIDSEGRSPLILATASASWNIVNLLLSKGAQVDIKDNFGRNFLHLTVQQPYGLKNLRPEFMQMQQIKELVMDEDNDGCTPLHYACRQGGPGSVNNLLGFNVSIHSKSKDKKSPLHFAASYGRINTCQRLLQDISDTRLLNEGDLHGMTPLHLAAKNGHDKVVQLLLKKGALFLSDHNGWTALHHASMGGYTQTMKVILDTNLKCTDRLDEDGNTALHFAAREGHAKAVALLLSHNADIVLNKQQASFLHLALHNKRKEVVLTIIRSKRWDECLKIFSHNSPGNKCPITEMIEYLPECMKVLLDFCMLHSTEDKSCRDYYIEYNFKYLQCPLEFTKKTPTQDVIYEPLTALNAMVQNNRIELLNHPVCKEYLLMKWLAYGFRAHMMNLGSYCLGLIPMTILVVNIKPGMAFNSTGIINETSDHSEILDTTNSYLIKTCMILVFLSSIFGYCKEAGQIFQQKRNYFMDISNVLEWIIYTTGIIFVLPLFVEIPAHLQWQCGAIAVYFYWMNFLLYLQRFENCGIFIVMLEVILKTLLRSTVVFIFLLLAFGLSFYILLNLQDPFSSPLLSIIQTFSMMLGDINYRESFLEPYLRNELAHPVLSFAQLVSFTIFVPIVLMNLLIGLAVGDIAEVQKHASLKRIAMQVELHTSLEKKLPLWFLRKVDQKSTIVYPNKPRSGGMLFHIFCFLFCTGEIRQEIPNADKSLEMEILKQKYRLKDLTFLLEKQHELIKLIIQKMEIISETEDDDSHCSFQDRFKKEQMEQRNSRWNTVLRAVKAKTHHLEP

IC50 [µM] | Structure (SMILES)
> 10 | CC1=C(C(=O)N2CCOCC2)C(c2ccc(Cl)cc2)NC(=O)N1 (stereo not drawn)
≤ 5 | CC1=C(C(=O)N2CCOCC2)C(c2cccc(F)c2)NC(=O)N1 (stereo not drawn)
≤ 10 | CCOC(=O)C1=C(C)NC(=S)NC1c1ccc(O)c(OC)c1 (stereo not drawn)
> 10 | CCOC(=O)C1=C(C)NC(=S)NC1c1ccccc1 (stereo not drawn)
> 10 | COC(=O)C1=C(C)NC(=O)NC1c1ccc(O)c(OC)c1 (stereo not drawn)
> 10 | COC(=O)C1=C(C)NC(=O)NC1c1ccc(O)cc1 (stereo not drawn)
> 10 | CCOC(=O)C1=C(C)NC(=S)NC1c1cc(OC)ccc1OC (stereo not drawn)
> 10 | CC1=C(C(=O)OC(C)C)C(c2c(O)ccc3ccccc23)NC(=S)N1 (stereo not drawn)
> 10 | CCOC(=O)C1=C(c2ccccc2)NC(=S)NC1c1cccc(OC)c1OC (stereo not drawn)
> 10 | COc1cccc(C2NC(=S)NC(C)=C2C(=O)OCc2ccccc2)c1 (stereo not drawn)
> 10 | CCOC(=O)C1=C(c2ccccc2)NC(=S)NC1c1ccccc1OC (stereo not drawn)
≤ 10 | CCOC(=O)C1=C(c2ccccc2)NC(=O)NC1c1ccc(CC)cc1 (stereo not drawn)
> 10 | COCCOC(=O)C1=C(C)NC(=S)NC1c1ccc(Br)cc1 (stereo not drawn)
> 10 | COCCOC(=O)C1=C(C)NC(=S)NC1c1cccc(Br)c1 (stereo not drawn)
> 10 | CCOC(=O)C1=C(C)NC(=O)NC1c1ccc(SC)cc1 (stereo not drawn)
≥ 30 | COC(=O)C1=C(C)N(C)C(=S)NC1c1ccc(OC)cc1 (stereo not drawn)
≤ 10 | COC(=O)C1=C(C)N(C)C(=S)NC1c1ccc(Cl)cc1 (stereo not drawn)

IC50 [µM] | Structure (SMILES)
> 10 | CC1=C(C(=O)OC(C)C)C(c2ccc(C(C)C)cc2)NC(=O)N1 (stereo not drawn)
> 10 | CC1=C(C(=O)N2CCOCC2)C(c2cccc(Cl)c2)NC(=O)N1 (stereo not drawn)
> 10 | CC1=C(C(=O)OC(C)C)C(c2ccc(Cl)cc2)NC(=S)N1 (stereo not drawn)
> 10 | CCOC(=O)C1=C(C)N(C)C(=O)NC1c1cccc(Cl)c1Cl (stereo not drawn)
> 10 | COC(=O)C1=C(C)N(C)C(=O)NC1c1cccc(Cl)c1 (stereo not drawn)
> 10 | CCOC(=O)C1=C(C)NC(=S)NC1c1cc(C)ccc1C (stereo not drawn)
> 10 | COC(=O)C1=C(C)NC(=O)NC1c1ccc2ccccc2c1 (stereo not drawn)
> 10 | COC(=O)C1=C(C)NC(=S)NC1c1ccccc1OC(C)C (stereo not drawn)
> 10 | CCN(CC)C(=O)C1=C(C)NC(=S)NC1c1ccccc1OC (stereo not drawn)
> 10 | CCN(CC)C(=O)C1=C(C)NC(=S)NC1c1ccc(Br)cc1 (stereo not drawn)
≤ 10 | C=CCOC(=O)C1=C(C)NC(=S)NC1c1cccc(OC)c1 (stereo not drawn)
> 10 | CCN1C(=O)NC(c2c(F)cccc2Cl)C(C(=O)OC)=C1C (stereo not drawn)
> 10 | C=CCOC(=O)C1=C(C)NC(=S)NC1c1ccccc1F (stereo not drawn)
> 10 | CSc1ccc(C2NC(=O)NC(C)=C2C(=O)OCc2ccccc2)cc1 (stereo not drawn)
> 10 | CCN1C(=O)NC(c2ccccc2Br)C(C(=O)OC)=C1C (stereo not drawn)
> 10 | CCN1C(=O)NC(c2cc(C)ccc2C)C(C(=O)OC)=C1C (stereo not drawn)

More lines, now with the values behind:

Structure (SMILES) | IC50 [µM]
CCN(CC)C(=O)C1=C(C)NC(=S)NC1c1ccc(F)cc1 (stereo not drawn) | > 10
CCOC(=O)C1=C(C)NC(=S)NC1c1ccc(N(C)C)cc1 (stereo not drawn) | > 10
COC(=O)C1=C(C)NC(=O)NC1c1ccccc1OC (stereo not drawn) | > 10
CC1=C(C(=O)Nc2ccccc2)C(c2ccc(F)cc2)NC(=S)N1 (stereo not drawn) | ≥ 30
CC1=C(C(=O)Nc2ccccc2)C(c2ccccc2)NC(=S)N1 (stereo not drawn) | ≥ 30
CC1=C(C(=O)Nc2ccccc2)C(c2ccc(Br)cc2)NC(=S)N1 (stereo not drawn) | > 10
CCOC(=O)C1=C(C)NC(=S)NC1c1ccc(OC)c(OC)c1 (stereo not drawn) | > 10
CCOC(=O)C1=C(c2ccccc2)NC(=S)NC1c1ccccc1 (stereo not drawn) | ≤ 10
CCOc1ccccc1C1NC(=O)NC(C)=C1C(=O)OC (stereo not drawn) | > 10
CCOC(=O)C1=C(C)NC(=O)NC1c1ccc(O)cc1 (stereo not drawn) | > 10
CCOC(=O)C1=C(C)NC(=O)NC1c1ccc(OCC)cc1 (stereo not drawn) | > 10
CC1=C(C(=O)OC(C)C)C(c2ccccc2F)NC(=S)N1 (stereo not drawn) | > 10
CCOC(=O)C1=C(C)NC(=S)NC1c1ccc(O)cc1 (stereo not drawn) | > 10
CCOC(=O)C1=C(c2ccccc2)NC(=S)NC1c1ccc(SC)cc1 (stereo not drawn) | ≤ 5
CCOC(=O)C1=C(c2ccccc2)NC(=S)NC1c1ccc(OCC)cc1 (stereo not drawn) | > 10
CCOC(=O)C1=C(c2ccccc2)NC(=O)NC1c1ccccc1F (stereo not drawn) | > 10
CCOC(=O)C1=C(C)NC(=O)NC1c1ccccc1C (stereo not drawn) | > 10
COC(=O)C1=C(C)N(C)C(=O)N(C)C1c1cccc([N+](=O)[O-])c1 (stereo not drawn) | > 10
CCOC(=O)C1=C(C)NC(=O)NC1c1ccc(F)cc1F (stereo not drawn) | > 10
CCOC(=O)C1=C(C)N(CC)C(=O)NC1c1ccccc1Cl (stereo not drawn) | ≥ 20
CCN1C(=O)NC(c2ccc(Br)cc2)C(C(=O)OC(C)C)=C1C (stereo not drawn) | ≤ 5
CCCC1=C(C(=O)OCC)C(c2ccc(Br)cc2)NC(=O)N1 (stereo not drawn) | ≥ 30
CCCC1=C(C(=O)OCC)C(c2ccc(CC)cc2)NC(=O)N1 (stereo not drawn) | > 10
CCCC1=C(C(=O)OCC)C(c2ccc(Cl)cc2Cl)NC(=O)N1 (stereo not drawn) | > 10
CC1=C(C(=O)OCC(C)C)C(c2ccc([N+](=O)[O-])cc2)NC(=O)N1C (stereo not drawn) | ≤ 5
CC1=C(C(=O)OC2CCCC2)C(c2ccccc2Cl)NC(=O)N1C (stereo not drawn) | > 10
COCCOC(=O)C1=C(C)NC(=S)NC1c1ccc(F)cc1 (stereo not drawn) | ≤ 5

Structure (SMILES) | IC50 [µM]
COc1ccc(C2NC(=S)N(C)C(C)=C2C(=O)Nc2ccccc2)cc1 (stereo not drawn) | > 10
COC(=O)C1=C(C)N(C)C(=S)NC1c1cccc(OC)c1 (stereo not drawn) | ≥ 20
CCOC(=O)C1=C(C)NC(=S)NC1c1ccc(OC(C)C)cc1 (stereo not drawn) | > 10
COC(=O)C1=C(C)NC(=S)NC1c1ccc(OC(C)C)cc1 (stereo not drawn) | > 10
COC(=O)C1=C(C)NC(=S)NC1c1cc(OC)ccc1Br (stereo not drawn) | ≤ 5
CCOC(=O)C1=C(C)NC(=S)NC1c1ccc(CC)cc1 (stereo not drawn) | > 10
COC(=O)C1=C(C)N(C)C(=O)NC1c1ccc(C(C)(C)C)cc1 (stereo not drawn) | > 10
CCOC(=O)C1=C(C)NC(=S)NC1c1cc(OC)ccc1Br (stereo not drawn) | > 10
COC(=O)C1=C(C)N(C)C(=O)NC1c1cc(Br)ccc1F (stereo not drawn) | > 10
CCC(C)OC(=O)C1=C(C)NC(=O)NC1c1ccc(C(F)(F)F)cc1 (stereo not drawn) | ≤ 10
CCCC1=C(C(=O)OCC)C(c2cccc([N+](=O)[O-])c2)NC(=O)N1C (stereo not drawn) | > 10
COC(=O)C1=C(C)NC(=O)NC1c1cc(C)ccc1C (stereo not drawn) | > 10
COC(=O)C1=C(C)NC(=O)NC1c1ccc(C(C)(C)C)cc1 (stereo not drawn) | > 10
CC1=C(C(=O)OC(C)(C)C)C(c2cccc(Br)c2)NC(=O)N1 (stereo not drawn) | > 10
CC1=C(C(=O)OC(C)(C)C)C(c2ccccc2Cl)NC(=O)N1 (stereo not drawn) | > 10
CC1=C(C(=O)OC2CCCCCC2)C(c2cccc(C)c2)NC(=O)N1 (stereo not drawn) | > 10
CCN(CC)C(=O)C1=C(C)NC(=S)NC1c1ccccc1 (stereo not drawn) | > 10
CCOC(=O)C1=C(C)N(C)C(=S)NC1c1cccc(Cl)c1Cl (stereo not drawn) | > 10
CCN(CC)C(=O)C1=C(C)NC(=O)NC1c1c(F)cccc1Cl (stereo not drawn) | > 10
CCN(CC)C(=O)C1=C(C)NC(=S)NC1c1ccccc1F (stereo not drawn) | > 10
COC(=O)C1=C(C)N(C)C(=O)NC1c1ccccc1C (stereo not drawn) | > 10
COC(=O)C1=C(C)N(C)C(=O)NC1c1c(Cl)cccc1Cl (stereo not drawn) | > 10
CCOc1ccc(C2NC(=S)NC(C)=C2C(=O)OC(C)C)cc1 (stereo not drawn) | > 10
CCOC(=O)C1=C(C)NC(=S)NC1c1cccc(OC2CCCC2)c1 (stereo not drawn) | ≤ 5
CC1=C(C(=O)OC2CCCC2)C(c2ccc(C)c(Br)c2)NC(=O)N1 (stereo not drawn) | > 10
CCN1C(=O)NC(c2ccc(Cl)cc2Cl)C(C(=O)OC)=C1C (stereo not drawn) | > 10
CCOC(=O)C1=C(C)NC(=S)NC1c1ccccc1OC1CCCC1 (stereo not drawn) | > 10
